# Reference: patent US10576062B2, “Carbamoyloxymethyl triazole cyclohexyl acids as LPA antagonists” (Bristol-Myers Squibb Company, priority 2016, dated 2020)
# Target: T1, human LPA1 (Homo sapiens, UniProt Q92633)
# T1 construct: expressed in transfected cells; host or cells: Chinese hamster ovary (CHO) cells
# Test: LPA1 functional antagonist assay (LPA-induced calcium flux)
# Format: cell-based
# Conditions: read-out: hLPA1 IC50
# How it was run: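 CHO cells overexpressing human LPA1, loaded with calcium dye 30 min at 37° C, were preincubated 20 min at room temperature with compound (0.08 nM–5 μM, 0.5% DMSO) in HBSS/20 mM HEPES/0.1% fatty acid-free BSA.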
# T1 sequence (Q92633 whole entry): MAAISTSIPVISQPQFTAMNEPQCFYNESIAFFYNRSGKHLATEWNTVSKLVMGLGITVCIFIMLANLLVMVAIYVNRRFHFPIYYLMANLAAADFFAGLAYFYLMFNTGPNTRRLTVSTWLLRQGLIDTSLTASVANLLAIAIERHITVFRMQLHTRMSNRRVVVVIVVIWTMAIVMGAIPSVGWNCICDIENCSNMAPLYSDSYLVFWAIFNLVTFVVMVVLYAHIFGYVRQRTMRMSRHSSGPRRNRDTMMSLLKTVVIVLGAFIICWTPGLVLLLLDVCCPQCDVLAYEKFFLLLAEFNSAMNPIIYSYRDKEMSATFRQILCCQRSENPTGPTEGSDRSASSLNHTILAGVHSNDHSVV
row,SMILES,IC50
1,"Cc1nc(-c2nnn(C)c2COC(=O)N(C)CC2CCOCC2)ccc1O[C@H]1CCC[C@H](C(=O)O)C1 [Example 117, (1S,3S)-3-((2-methyl-6-(1-methyl-5-(((methyl((tetrahydro-2H-pyran-4-yl)methyl)carbamoyl)oxy)methyl)-1H-1,2,3-triazol-4-yl)pyridin-3-yl)oxy)cyclohexane-1-carboxylic acid]",17 nM
2,"Cc1nc(-c2nnn(C)c2COC(=O)N(C)Cc2ccccn2)ccc1O[C@H]1CCC[C@H](C(=O)O)C1 [Example 118, (1S,3S)-3-((2-methyl-6-(1-methyl-5-(((methyl(pyridin-2-ylmethyl)carbamoyl)oxy)methyl)-1H-1,2,3-triazol-4-yl)pyridin-3-yl)oxy)cyclohexane-1-carboxylic acid]",211 nM
3,"Cc1nc(-c2nnn(C)c2COC(=O)N(C)Cc2cccnc2)ccc1O[C@H]1CCC[C@H](C(=O)O)C1 [Example 120, (1S,3S)-3-((2-methyl-6-(1-methyl-5-(((methyl(pyridin-3-ylmethyl)carbamoyl)oxy)methyl)-1H-1,2,3-triazol-4-yl)pyridin-3-yl)oxy)cyclohexane-1-carboxylic acid]",809 nM
4,"Cc1nc(-c2nnn(C)c2COC(=O)N(C)Cc2ncccn2)ccc1O[C@H]1CCC[C@H](C(=O)O)C1 [Example 121, (1S,3S)-3-((2-methyl-6-(1-methyl-5-(((methyl(pyrimidin-2-ylmethyl)carbamoyl)oxy)methyl)-1H-1,2,3-triazol-4-yl)pyridin-3-yl)oxy)cyclohexane-1-carboxylic acid]",1090 nM
5,"Cc1nc(-c2nnn(C)c2COC(=O)N(C)Cc2ccncc2)ccc1O[C@H]1CCC[C@H](C(=O)O)C1 [Example 122, (1S,3S)-3-((2-methyl-6-(1-methyl-5-(((methyl(pyridin-4-ylmethyl)carbamoyl)oxy)methyl)-1H-1,2,3-triazol-4-yl)pyridin-3-yl)oxy)cyclohexane-1-carboxylic acid]",873 nM
6,"Cc1nc(-c2nnn(C)c2COC(=O)N(C)Cc2cnccn2)ccc1O[C@H]1CCC[C@H](C(=O)O)C1 [Example 123, (1S,3S)-3-((2-methyl-6-(1-methyl-5-(((methyl(pyrazin-2-ylmethyl)carbamoyl)oxy)methyl)-1H-1,2,3-triazol-4-yl)pyridin-3-yl)oxy)cyclohexane-1-carboxylic acid]",618 nM
7,"Cc1nc(-c2nnn(C)c2COC(=O)N(C)Cc2ccnn2C)ccc1O[C@H]1CCC[C@H](C(=O)O)C1 [Example 124, (1S,3S)-3-((2-methyl-6-(1-methyl-5-(((methyl((1-methyl-1H-pyrazol-5-yl)methyl)carbamoyl)oxy)methyl)-1H-1,2,3-triazol-4-yl)pyridin-3-yl)oxy)cyclohexane-1-carboxylic acid]",982 nM
8,"Cc1nc(-c2nnn(C)c2COC(=O)N(C)CC2COCCN2)ccc1O[C@H]1CCC[C@H](C(=O)O)C1 (stereo partly drawn) [Example 125, (1S,3S)-3-((2-methyl-6-(1-methyl-5-(((methyl(morpholin-3-ylmethyl)carbamoyl)oxy)methyl)-1H-1,2,3-triazol-4-yl)pyridin-3-yl)oxy)cyclohexane-1-carboxylic acid]",668 nM
9,"Cc1nc(-c2nnn(C)c2COC(=O)N(C)CC2CCOC2)ccc1O[C@H]1CCC[C@H](C(=O)O)C1 (stereo partly drawn) [Example 126, (1S,3S)-3-((2-methyl-6-(1-methyl-5-(((methyl((tetrahydrofuran-3-yl)methyl)carbamoyl)oxy)methyl)-1H-1,2,3-triazol-4-yl)pyridin-3-yl)oxy)cyclohexane-1-carboxylic acid]",346 nM
10,"CCCCN(CC)C(=O)OCc1c(-c2ccc(O[C@H]3CCC[C@H](C(=O)O)C3)c(C)n2)nnn1C [Example 127, (1S,3S)-3-((6-(5-(((butyl(ethyl)carbamoyl)oxy)methyl)-1-methyl-1H-1,2,3-triazol-4-yl)-2-methylpyridin-3-yl)oxy)cyclohexane-1-carboxylic acid]",33 nM
11,"CCCN(CC)C(=O)OCc1c(-c2ccc(O[C@H]3CCC[C@H](C(=O)O)C3)c(C)n2)nnn1C [Example 128, (1S,3S)-3-((6-(5-(((ethyl(propyl)carbamoyl)oxy)methyl)-1-methyl-1H-1,2,3-triazol-4-yl)-2-methylpyridin-3-yl)oxy)cyclohexane-1-carboxylic acid]",158 nM
12,"Cc1nc(-c2nnn(C)c2COC(=O)N(C)C2(C(C)C)CC2)ccc1O[C@H]1CCC[C@H](C(=O)O)C1 [Example 129, (1S,3S)-3-((6-(5-((((1-isopropylcyclopropyl)(methyl)carbamoyl)oxy)methyl)-1-methyl-1H-1,2,3-triazol-4-yl)-2-methylpyridin-3-yl)oxy)cyclohexane-1-carboxylic acid]",352 nM
13,"Cc1nc(-c2nnn(C)c2COC(=O)N(C)C2(CC(C)C)CC2)ccc1O[C@H]1CCC[C@H](C(=O)O)C1 [Example 130, (1S,3S)-3-((6-(5-((((1-isobutylcyclopropyl)(methyl)carbamoyl)oxy)methyl)-1-methyl-1H-1,2,3-triazol-4-yl)-2-methylpyridin-3-yl)oxy)cyclohexane-1-carboxylic acid]",243 nM
14,"CCCC1(N(C)C(=O)OCc2c(-c3ccc(O[C@H]4CCC[C@H](C(=O)O)C4)c(C)n3)nnn2C)CCC1 [Example 132, (1S,3S)-3-((2-methyl-6-(1-methyl-5-(((methyl(1-propylcyclobutyl)carbamoyl)oxy)methyl)-1H-1,2,3-triazol-4-yl)pyridin-3-yl)oxy)cyclohexane-1-carboxylic acid]",180 nM
15,Cc1nc(-c2nnn(C)c2COC(=O)N(C)C(C)C)ccc1O[C@H]1CCC[C@H](C(=O)O)C1 [Example 138],98 nM
16,"Cc1nc(-c2nnn(C)c2COC(=O)N(C)C2CC(F)(F)C2)ccc1O[C@H]1CCC[C@H](C(=O)O)C1 [Example 139, (1S,3S)-3-((6-(5-((((3,3-difluorocyclobutyl)(methyl)carbamoyl)oxy)methyl)-1-methyl-1H-1,2,3-triazol-4-yl)-2-methylpyridin-3-yl)oxy)cyclohexane-1-carboxylic acid]",70 nM
17,"Cc1nc(-c2nnn(C)c2COC(=O)N(C)C2CC(F)(F)C2)ccc1O[C@H]1CCC[C@@H](C(=O)O)C1 [Example 141, (1R,3S)-3-((6-(5-((((3,3-difluoro-cyclobutyl)(methyl)carbamoyl)oxy)methyl)-1-methyl-1H-1,2,3-triazol-4-yl)-2-methylpyridin-3-yl)oxy)cyclohexane-1-carboxylic acid]",283 nM

# More lines, now with the values ahead:
row,IC50,SMILES
1,187 nM,"CCC1(N(C)C(=O)OCc2c(-c3ccc(O[C@H]4CCC[C@H](C(=O)O)C4)c(C)n3)nnn2C)CC1 [Example 131, (1S,3S)-3-((6-(5-((((1-ethylcyclopropyl)(methyl)carbamoyl)oxy)methyl)-1-methyl-1H-1,2,3-triazol-4-yl)-2-methylpyridin-3-yl)oxy)cyclohexane-1-carboxylic acid]"
2,174 nM,"CCC1(N(C)C(=O)OCc2c(-c3ccc(O[C@H]4CCC[C@H](C(=O)O)C4)c(C)n3)nnn2C)CCC1 [Example 133, (1S,3S)-3-((6-(5-((((1-ethylcyclobutyl)(methyl)carbamoyl)oxy)methyl)-1-methyl-1H-1,2,3-triazol-4-yl)-2-methylpyridin-3-yl)oxy)cyclohexane-1-carboxylic acid]"
3,76 nM,"Cc1nc(-c2nnn(C)c2COC(=O)N2CC3(CCC3)C2)ccc1O[C@H]1CCC[C@H](C(=O)O)C1 [Example 134, (1S,3S)-3-((6-(5-(((2-azaspiro[3.3]heptane-2-carbonyl)oxy)methyl)-1-methyl-1H-1,2,3-triazol-4-yl)-2-methylpyridin-3-yl)oxy)cyclohexane-1-carboxylic acid]"
4,47 nM,"Cc1nc(-c2nnn(C)c2COC(=O)N2CCC3(CCC3)C2)ccc1O[C@H]1CCC[C@H](C(=O)O)C1 [Example 135, (1S,3S)-3-((6-(5-(((6-azaspiro[3.4]octane-6-carbonyl)oxy)methyl)-1-methyl-1H-1,2,3-triazol-4-yl)-2-methylpyridin-3-yl)oxy)cyclohexane-1-carboxylic acid]"
5,36 nM,"Cc1nc(-c2nnn(C)c2COC(=O)N(C)C2CCC2)ccc1O[C@H]1CCC[C@H](C(=O)O)C1 [Example 136, (1S,3S)-3-((6-(5-(((cyclobutyl(methyl)carbamoyl)oxy)methyl)-1-methyl-1H-1,2,3-triazol-4-yl)-2-methylpyridin-3-yl)oxy)cyclohexane-1-carboxylic acid]"
6,292 nM,"Cc1nc(-c2nnn(C)c2COC(=O)N2CCCC(C)(C)C2)ccc1O[C@H]1CCC[C@H](C(=O)O)C1 [Example 137, (1S,3S)-3-((6-(5-(((3,3-dimethylpiperidine-1-carbonyl)oxy)methyl)-1-methyl-1H-1,2,3-triazol-4-yl)-2-methylpyridin-3-yl)oxy)cyclohexane-1-carboxylic acid]"
7,148 nM,"Cc1nc(-c2nnn(C)c2COC(=O)N2CCC(C)(C)C2)ccc1O[C@H]1CCC[C@H](C(=O)O)C1 [Example 140, (1S,3S)-3-((6-(5-(((3,3-dimethylpyrrolidine-1-carbonyl)oxy)methyl)-1-methyl-1H-1,2,3-triazol-4-yl)-2-methylpyridin-3-yl)oxy)cyclohexane-1-carboxylic acid]"
8,252 nM,"Cc1nc(-c2nnn(C)c2COC(=O)N(C)C2CC2)ccc1O[C@H]1CCC[C@H](C(=O)O)C1 [Example 142, (1S,3S)-3-((6-(5-(((cyclopropyl(methyl)carbamoyl)oxy)methyl)-1-methyl-1H-1,2,3-triazol-4-yl)-2-methylpyridin-3-yl)oxy)cyclohexane-1-carboxylic acid]"
9,518 nM,"Cc1nc(-c2nnn(C)c2COC(=O)N2CCC(F)(F)C2)ccc1O[C@H]1CCC[C@H](C(=O)O)C1 [Example 143, (1S,3S)-3-((6-(5-(((3,3-difluoro-pyrrolidine-1-carbonyl)oxy)methyl)-1-methyl-1H-1,2,3-triazol-4-yl)-2-methylpyridin-3-yl)oxy)cyclohexane-1-carboxylic acid]"
